Earlier results as cited in US9961900B2, “Herbicide formulations” (priority 2012, dated 2018).
Values after ≈ are worked out from the molar mass of the structure shown. Where two headings read alike, the source gives them in different places.

Assays:
[1] = not given; remark: listed apart in the source
[2] = for Aqueous hydrolysis (DT50): 20° C. and pH 7
[3] = not given; remark: listed apart in the source

In the case of CCOC(=O)C(Cl)Cc1cc(-n2nc(C)n(C(F)F)c2=O)c(F)cc1Cl (racemic) [carfentrazone-ethyl, ethyl (RS)-2-chloro-3-{2-chloro-5-[4-(difluoromethyl)-4,5-dihydro-3-methyl-5-oxo-1H-1,2,4-triazol-1-yl]-4-fluorophenyl}propionate], the Solubility in acetone (20° C.) is listed as 2000 mg/mL (≈ 4850 mM), the Solubility in ethanol (20° C.) is listed as 2000 mg/mL (≈ 4850 mM) and the Solubility in hexane (20° C.) is listed as 30 mg/mL (≈ 72.8 mM). The Solubility in toluene (20° C.) was 900 mg/mL (≈ 2180 mM), the Solubility in water (20° C.) was “Water: 22 mg/L (20° C.)” and the “log P (octanol-water)” value ([1]; pH 7, 20° C.) was “logP = 3.36”. The “Aqueous hydrolysis (DT50)” value [2] was 13.7 (non-persistent) days, the Aqueous hydrolysis stability ([2]; pH 5, 20° C.) was “pH sensitive: stable at pH 5,” and the “Hydrolysis DT50” value ([2]; pH 9, 20° C.) was “DT50 5.1 hours at pH 9, (20° C.)^+”.
In the case of COC(=O)C(C)Oc1ccc(Oc2ccc(Cl)cc2Cl)cc1 (racemic) [diclofop-methyl, methyl (RS)-2-[4-(2,4-dichlorophenoxy)phenoxy]propionate], the Solubility in acetone (20° C.) is listed as “In acetone, toluene, dichloromethane, 500,000 mg/L”, the Solubility in dichloromethane (20° C.) is listed as “In acetone, toluene, dichloromethane, 500,000 mg/L” and the “Solubility in n-hexane” value (20° C.) is listed as “mg/L; in n-Hexane: 49,700 mg/L (all at 20° C.) ^++”. For the same molecule, the Solubility in toluene (20° C.) was “In acetone, toluene, dichloromethane, 500,000 mg/L”, the Solubility in water (20° C.) was “Water: 0.39 mg/L (20° C.)” and the “log P (octanol-water)” value ([1]; pH 7, 20° C.) was “log P = 4.8”. For the same molecule, the “Aqueous hydrolysis (DT50)” value [2] was “at 20 °C and pH 7: 31.7 days”, the “Hydrolysis DT50” value ([2]; pH 5, 25° C., darkness) was 363 days and the “Hydrolysis DT50” value ([2]; pH 7, 25° C., darkness) was 31.7 days. The “Hydrolysis DT50” value ([2]; pH 9, 25° C., darkness) was 0.52 days and the “Aqueous photolysis DT50” value ([3]; pH 7) was “Aqueous photolysis DT50 at pH 7: 22 days^++”.
For C#CCOc1cc(-n2nc3n(c2=O)CCCC3)c(Cl)cc1Cl [azafenidin, 2-(2,4-dichloro-5-prop-2-ynyloxyphenyl)-5,6,7,8-tetrahydro-1,2,4-triazolo[4,3-a]pyridin-3(2H)-one], the Solubility in water (20° C.) is listed as “Water: 16 mg/L (20° C.) ^++”, the “log P (octanol-water)” value ([1]; pH 7, 20° C.) is listed as “logP = 2.7” and the “Aqueous photolysis DT50” value ([3]; Pesticide Properties Database) is listed as 0.5 days.
For CCOC(=O)[C@@H](C)Oc1ccc(Oc2nc3ccc(Cl)cc3o2)cc1 [fenoxaprop-p-ethyl, ethyl (R)-2-[4-(6-chloro-1,3-benzoxazol-2-yloxy)phenoxy]propionate], the Solubility in acetone (20° C.) is listed as “In acetone, ethyl acetate, toluene, >200 g/L;”, the “Solubility in ethyl acetate” value (20° C.) is listed as “In acetone, ethyl acetate, toluene, >200 g/L;” and the Solubility in methanol (20° C.) is listed as “methanol 43 g/L (all at 20° C.) ^+”. The Solubility in water (pH 5.8, 25° C.) was “Water: 0.7 mg/L at pH 5.8 (25° C.)”, the “log P (octanol-water)” value [1] was “log P = 4.58 ^+” and the “Hydrolytic DT50” value ([2]; pH 4, 25° C.) was 2.8 days. The “Hydrolytic DT50” value ([2]; pH 5, 25° C.) was 19.2 days, the “Hydrolytic DT50” value ([2]; pH 7, 25° C.) was 23.2 days and the “Hydrolytic DT50” value ([2]; pH 9, 25° C.) was 7), 0.6 d (pH 9) (all at 25° C.) ^+. The “Aqueous photolysis DT50” value ([3]; pH 7) was “Aqueous photolysis DT50 at pH 7: 105 days”.
In the case of COc1ncc(F)c2nc(S(=O)(=O)Nc3c(F)cccc3F)nn12 [florasulam], the Solubility in acetone is listed as “Acetone: 123,000 mg/L”, the Solubility in water is listed as “Water: 6360 mg/L” and the “log P (octanol-water)” value [1] is listed as “log P: −1.22”. For the same molecule, the Aqueous hydrolysis ([2]; at pH 7 and 20° C.) was “Stable” and the “Photolytic stability DT50” value ([3]; at pH 7) was “DT50: 156 d”.
In the case of COC(=O)[C@@H](C)Oc1ccc(Oc2ncc(C(F)(F)F)cc2Cl)cc1 [haloxyfop-p-methyl, methyl (R)-2-{4-[3-chloro-5-(trifluoromethyl)-2-pyridyloxy]phenoxy}propionate], the Solubility in acetone (25° C.) is given as greater than 500 mg/mL, the Solubility in dichloromethane (25° C.) is given as greater than 500 mg/mL and the “Solubility in ethyl acetate” value (25° C.) is given as greater than 500 mg/mL. The Solubility in methanol (25° C.) was 76 mg/mL (≈ 202 mM), the Solubility in n-hexane (25° C.) was 11 mg/mL (≈ 29.3 mM) and the Solubility in toluene (25° C.) was greater than 500 mg/mL. For the same molecule, the Solubility in water (pH 5, 25° C.) was 6.9 mg/L (≈ 0.0184 mM), the Solubility in water (pH 7, 25° C.) was 7.9 mg/L at pH 7 (all at 25° C.) and the Solubility in water (unbuffered, 25° C.) was 9.1 mg/L (≈ 0.0242 mM). For the same molecule, the “log P (octanol-water)” value ([1]; 20° C.) was “log P = 4.0”, the DT50 ([2]; natural water, 20° C.) was 3 days and the DT50 ([2]; pH 4, 20° C.) was “stable”. For the same molecule, the DT50 ([2]; pH 7, 20° C.) was 43 days, the DT50 ([2]; pH 9, 20° C.) was 0.63 d (pH 9) (all at 20° C.) ^+ and the “Aqueous photolysis DT50” value ([3]; pH 7) was “Aqueous photolysis DT50 at pH 7: 20 days^++”.
